Reference: US20040053913A1, “Process for preparing 6-alkylidene penem derivatives” (priority 2002, published 2004)
Structures can show the parent of a compound that is named as a salt.

Key:
[1] = molecular target: class C enzyme AmpC from Enterobacter cloaca (Enterobacter cloacae, UniProt P05364); assay: β-Lactamase inhibition, spectrophotometric nitrocefin hydrolysis assay, AmpC; format: biochemical; settings: enzyme 2.1 nM; 10 minutes preincubation at 25° C.; nitrocefin 50 μg/ml; 50 mM PO4, pH 7.0; read-out: IC50 (nM) Amp-C
Sequence of class C enzyme AmpC from Enterobacter cloaca (P05364 21-381): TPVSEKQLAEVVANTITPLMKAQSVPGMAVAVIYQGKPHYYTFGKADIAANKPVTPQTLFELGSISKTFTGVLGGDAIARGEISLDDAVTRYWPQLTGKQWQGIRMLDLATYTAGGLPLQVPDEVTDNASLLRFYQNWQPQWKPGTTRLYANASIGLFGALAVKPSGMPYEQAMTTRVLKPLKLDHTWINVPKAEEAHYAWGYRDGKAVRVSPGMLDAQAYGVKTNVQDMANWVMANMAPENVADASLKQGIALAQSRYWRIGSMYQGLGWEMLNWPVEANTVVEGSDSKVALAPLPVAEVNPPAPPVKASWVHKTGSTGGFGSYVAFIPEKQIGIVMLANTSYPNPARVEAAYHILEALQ
Description: (§1) IC50 Determination for the Penem Inhibitor
(§2) β-Lactamase inhibitory activity of the penem inhibitors was determined spectrophotometrically as described by Bush et al., [Bush, K., Macalintal, C., Rasmussen, B. A., Lee, V. and Yang, Y. Antimicrobial Agents and Chemotherapy 1993, 37, 851]. Homogeneously purified class A β-lactamases TEM-1 from E. coli and Imi-1 from Enterobacter cloacae, class B enzyme CcrA from Bacteroides fragilis and class C enzyme AmpC from Enterobacter cloaca were employed in the assay. The enzyme concentrations for TEM-1, Imi-1, CcrA and AmpC were 4.3, 7.1, 1.2 and 2.1 nM, respectively. A wide range of inhibitor concentrations were prepared in 50 mM PO4, pH 7.0 to include the possible IC50 values. The substrate used to initiate the enzyme reaction was nitrocefin at 50 μg/ml in the same buffer as the inhibitor. Initially the enzyme and inhibitor (20 μl each) were preincubated for 10 minutes at 25° C. prior to the addition of 160 μl volume of nitrocefin. Initial rates of hydrolysis were monitored for 5 minutes at 495 nm using a Molecular Devices Spectra Max 250 with kinetic protocol of SoftMax Program. Readings from the Spectra Max 250 were exported and transferred to Microsoft Excel. The percent of inhibition of each inhibitor concentration was calculated based on the control enzyme activity. The inhibitor concentration that caused a 50% reduction in the enzymatic activity (IC50) was determined graphically.

[2] = molecular target: class B enzyme CcrA from Bacteroides fragilis (Bacteroides fragilis, UniProt P25910); assay: β-Lactamase inhibition, spectrophotometric nitrocefin hydrolysis assay, CcrA; format: biochemical; settings: enzyme 1.2 nM; 10 minutes preincubation at 25° C.; nitrocefin 50 μg/ml; 50 mM PO4, pH 7.0; read-out: IC50 (nM) Ccr-A
Sequence of class B enzyme CcrA from Bacteroides fragilis (P25910 19-249): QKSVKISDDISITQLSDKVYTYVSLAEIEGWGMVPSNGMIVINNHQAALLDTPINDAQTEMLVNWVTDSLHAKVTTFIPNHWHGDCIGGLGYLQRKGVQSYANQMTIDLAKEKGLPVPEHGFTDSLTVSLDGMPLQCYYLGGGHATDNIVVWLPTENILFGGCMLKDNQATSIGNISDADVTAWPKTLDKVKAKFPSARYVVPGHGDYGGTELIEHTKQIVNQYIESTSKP
Description: as §1, §2

[3] = molecular target: class A β-lactamase Imi-1 from Enterobacter cloacae (Enterobacter cloacae, UniProt Q46991); assay: β-Lactamase inhibition, spectrophotometric nitrocefin hydrolysis assay, Imi-1; format: biochemical; settings: enzyme 7.1 nM; 10 minutes preincubation at 25° C.; nitrocefin 50 μg/ml; 50 mM PO4, pH 7.0
Sequence of class A β-lactamase Imi-1 from Enterobacter cloacae (Q46991 entry or part of it): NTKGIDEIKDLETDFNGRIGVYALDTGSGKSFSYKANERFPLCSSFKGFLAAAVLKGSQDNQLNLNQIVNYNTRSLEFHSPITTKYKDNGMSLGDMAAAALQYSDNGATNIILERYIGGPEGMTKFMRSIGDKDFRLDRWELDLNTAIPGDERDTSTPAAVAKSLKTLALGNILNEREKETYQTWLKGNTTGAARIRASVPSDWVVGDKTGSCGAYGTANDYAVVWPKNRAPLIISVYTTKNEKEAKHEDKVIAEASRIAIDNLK
Description: as §1, §2

[4] = molecular target: class A β-lactamases TEM-1 from E. coli (Escherichia coli, UniProt P62593); assay: β-Lactamase inhibition, spectrophotometric nitrocefin hydrolysis assay, TEM-1; format: biochemical; settings: enzyme 4.3 nM; 10 minutes preincubation at 25° C.; nitrocefin 50 μg/ml; 50 mM PO4, pH 7.0
Sequence of class A β-lactamases TEM-1 from E. coli (P62593 24-286 limits assumed): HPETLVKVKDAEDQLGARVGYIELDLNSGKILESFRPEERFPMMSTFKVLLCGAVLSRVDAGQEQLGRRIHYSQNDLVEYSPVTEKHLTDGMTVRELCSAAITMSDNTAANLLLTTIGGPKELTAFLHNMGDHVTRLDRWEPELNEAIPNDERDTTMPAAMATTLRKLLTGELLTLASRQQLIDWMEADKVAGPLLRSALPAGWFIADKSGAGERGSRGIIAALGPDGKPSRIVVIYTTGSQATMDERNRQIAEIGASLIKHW
Description: as §1, §2

[5] = Comparative thermal stability in a solid state, residual ratio checked by HPLC; format: physicochemical; settings: for Residual Ratio (%): Temp. 40° C. in a solid state, HPLC
Description: One important aspect of the present invention relates to the use of stable bromopenem intermediate 16. The stability of the intermediate is relevant to the aldol condensation step where the decomposition is minimized [as well as to the shelf life stability]. In this invention the key intermediate 16, where R=para-Nitrobenzyl group is a stable and a crystalline intermediate. […] (Table 1) This remarkable stability of intermediate 16 enhances the shelf-life time of the compound as well as the scale-up feasibility. As mentioned above, protection of carboxyl group with para-Nitrobenzyl group reduces the number of steps in the present process of preparing the final compound of structure I. The crystalline nature of the intermediate was established by X-ray diffraction studies.
Column: Inertsil SIL 100-5 4.6×150 mm (GL Science Inc.)
Mobile phase; Ethylacetae: n-hexane (10:35 vv)
Wave length: […]; Flow rate: 1.0 ml/min @ Room temperature.

With `O=C(O)C1=CS[C@@H]2/C(=C\c3c[nH]c(Cc4ccccc4)n3)C(=O)N12` [Example 3, (5R), (6Z)-6-(2-Benzyl-1H-imidazol-4-ylmethylene)-7-oxo-4-thia-1-aza-bicyclo[3.2.0]hept-2-ene-2-carboxylic Acid Sodium Salt] the IC50 [1] was 0.8 nM, the IC50 [2] was 190 nM and the IC50 [3] was 1300 nM. It also gave an IC50 [4] of 1.2 nM.
`O=C(O)C1=CS[C@@H]2/C(=C\c3c[nH]c(-c4nccs4)n3)C(=O)N12` [Example 4, (5R), (6Z)-6-(2-thiazol-2-yl-1H-imidazol-4-ylmethylene)-7-oxo-4-thia-1-aza-bicyclo[3.2.0]hept-2-ene-2-carboxylic Acid Sodium Salt] showed an IC50 [1] of 2.3 nM, an IC50 [2] of 230 nM and an IC50 [3] of 5.8 nM. It also gave an IC50 [4] of 0.4 nM.
In the case of `O=C(O)C1=CS[C@@H]2/C(=C\c3c[nH]c(-c4ccccc4)n3)C(=O)N12` [Example 6, (5R), (6Z)-6-(2-phenyl-1H-imidazol-4-ylmethylene)-7-oxo-4-thia-1-aza-bicyclo[3.2.0]hept-2-ene-2-carboxylic Acid], the IC50 [1] is reported as 2.9 nM, the IC50 [2] is reported as 220 nM and the IC50 [3] is reported as 11 nM. The IC50 [4] was 5.6 nM.
In the case of `O=C(OCc1ccc([N+](=O)[O-])cc1)C1=CS[C@@H]2[C@@H](Br)C(=O)N12` [Example 16], the “comparative thermal stability (in words)” value ([5]; intermediate 16 versus intermediate Q) is reported as “more stable than the intermediate Q”.
With `O=C(OCc1ccc([N+](=O)[O-])cc1)C1=CS[C@@H]2[C@@H](Br)C(=O)N12` [Formula 16, 4-nitrobenzyl (5R,6S)-6-bromopenem-3-carboxylate] the “Residual Ratio (%)” value ([5]; Day 0) was 100.0%, the “Residual Ratio (%)” value ([5]; Day 1) was 100.0% and the “Residual Ratio (%)” value ([5]; Day 2) was 100.0%. For the same compound, the “Residual Ratio (%)” value ([5]; Day 4) was 100.0%, the “Residual Ratio (%)” value ([5]; Day 7) was 98.7% and the “Residual Ratio (%)” value ([5]; Day 14) was 98.4%.
For `COc1ccc(COC(=O)C2=CS[C@@H]3[C@@H](Br)C(=O)N23)cc1` [Formula Q, reference compound], the “Residual Ratio (%)” value ([5]; Day 0) was 100.0%, the “Residual Ratio (%)” value ([5]; Day 1) was 99.7% and the “Residual Ratio (%)” value ([5]; Day 2) was 95.3%. For the same compound, the “Residual Ratio (%)” value ([5]; Day 4) was 72.9% and the “Residual Ratio (%)” value ([5]; Day 7) was 69.8%.
In the case of “(5R), (6Z)-6-(1-Methyl-2-thiazol-2-yl-1H-imidazol-4-ylmethylene)-7-oxo-4-thia-1-aza-bicyclo[3.2.0]hept-2-ene-2-carboxylic Acid Sodium Salt [Example 5]”, the IC50 [1] is reported as 5.6 nM, the IC50 [2] is reported as 260 nM and the IC50 [3] is reported as 68 nM. It also gave an IC50 [4] of 5.2 nM.
“(5R), (6Z)-6-(3,1′-Dimethyl-3H,1′H-[2,4′]biimidazolyl-4-ylmethylene)-7-oxo-4-thia-1-aza-bicyclo[3.2.0]hept-2-ene-2-carboxylic Acid Sodium Salt [Example 2]” showed an IC50 [1] of 2.1 nM, an IC50 [2] of 250 nM and an IC50 [3] of 6 nM. For the same compound, the IC50 [4] was 4.1 nM.
